The source of these data is US8541588B2, “Sulfonamide derivatives” (Pfizer Limited, priority 2009, dated 2013).

A value given as a limit tells only on which side of the number the result lay.

T1 sequence (Q15858 whole entry): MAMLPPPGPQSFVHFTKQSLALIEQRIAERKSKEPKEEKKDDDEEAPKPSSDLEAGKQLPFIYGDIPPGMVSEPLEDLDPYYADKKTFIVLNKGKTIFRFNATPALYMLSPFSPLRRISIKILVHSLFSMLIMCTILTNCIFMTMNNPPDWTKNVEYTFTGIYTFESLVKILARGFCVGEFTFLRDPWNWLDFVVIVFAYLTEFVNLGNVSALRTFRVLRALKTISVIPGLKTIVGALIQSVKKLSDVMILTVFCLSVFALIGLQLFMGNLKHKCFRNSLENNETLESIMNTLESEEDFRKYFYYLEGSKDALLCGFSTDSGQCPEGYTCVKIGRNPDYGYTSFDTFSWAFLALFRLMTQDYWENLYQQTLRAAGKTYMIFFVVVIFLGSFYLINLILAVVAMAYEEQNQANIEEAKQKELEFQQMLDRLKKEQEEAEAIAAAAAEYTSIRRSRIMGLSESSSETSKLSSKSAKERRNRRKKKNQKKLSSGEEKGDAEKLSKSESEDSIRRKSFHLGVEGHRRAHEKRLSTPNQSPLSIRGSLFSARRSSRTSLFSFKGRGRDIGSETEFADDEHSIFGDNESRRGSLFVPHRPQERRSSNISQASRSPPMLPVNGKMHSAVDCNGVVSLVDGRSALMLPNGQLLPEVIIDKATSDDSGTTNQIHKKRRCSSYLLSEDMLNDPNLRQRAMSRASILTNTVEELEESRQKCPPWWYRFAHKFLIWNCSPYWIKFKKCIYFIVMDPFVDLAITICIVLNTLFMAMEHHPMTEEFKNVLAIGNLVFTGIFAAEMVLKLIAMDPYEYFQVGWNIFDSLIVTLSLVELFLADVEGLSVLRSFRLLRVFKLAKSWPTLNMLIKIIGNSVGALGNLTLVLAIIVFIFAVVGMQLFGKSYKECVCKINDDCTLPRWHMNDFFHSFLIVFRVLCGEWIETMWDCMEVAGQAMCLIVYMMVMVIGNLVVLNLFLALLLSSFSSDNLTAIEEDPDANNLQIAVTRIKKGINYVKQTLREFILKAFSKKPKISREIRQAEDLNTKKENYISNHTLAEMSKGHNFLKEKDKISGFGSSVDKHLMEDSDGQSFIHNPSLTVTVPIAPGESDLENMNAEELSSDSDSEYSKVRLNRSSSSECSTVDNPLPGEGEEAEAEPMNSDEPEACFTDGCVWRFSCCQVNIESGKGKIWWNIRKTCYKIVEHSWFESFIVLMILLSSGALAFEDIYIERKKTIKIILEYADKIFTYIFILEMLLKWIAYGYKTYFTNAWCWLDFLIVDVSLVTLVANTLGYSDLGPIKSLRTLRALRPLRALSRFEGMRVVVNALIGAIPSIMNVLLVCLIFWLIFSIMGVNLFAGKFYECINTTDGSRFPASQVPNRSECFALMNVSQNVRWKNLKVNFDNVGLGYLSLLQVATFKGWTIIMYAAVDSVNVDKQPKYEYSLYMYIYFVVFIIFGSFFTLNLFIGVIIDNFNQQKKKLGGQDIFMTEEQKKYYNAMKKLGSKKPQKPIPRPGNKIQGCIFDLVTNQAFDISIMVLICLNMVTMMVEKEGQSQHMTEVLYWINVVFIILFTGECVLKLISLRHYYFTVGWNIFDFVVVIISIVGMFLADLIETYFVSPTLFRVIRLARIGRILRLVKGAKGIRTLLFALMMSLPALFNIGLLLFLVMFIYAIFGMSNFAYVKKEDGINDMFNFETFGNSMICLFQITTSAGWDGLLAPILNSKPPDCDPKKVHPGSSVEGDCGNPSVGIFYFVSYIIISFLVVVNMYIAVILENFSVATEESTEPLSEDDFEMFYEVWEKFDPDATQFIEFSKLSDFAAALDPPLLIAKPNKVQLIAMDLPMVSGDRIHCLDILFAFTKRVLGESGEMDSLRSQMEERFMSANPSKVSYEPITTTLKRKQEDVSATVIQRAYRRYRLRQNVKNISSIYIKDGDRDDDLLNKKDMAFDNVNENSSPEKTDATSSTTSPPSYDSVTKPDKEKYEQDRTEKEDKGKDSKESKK

The first experiment addresses T1, Nav1.7 (or SCN9A) channel; HEK cells stably transfected with hSCN9A (Homo sapiens, UniProt Q15858).
T1 construct: expressed in transfected cells
The experiment is described as follows: Nav1.7 block, PatchXpress 7000 automated whole-cell voltage clamp, estimated IC50 (EIC50). It counts as cell-based. The note with it: PatchXpress platform; hSCN9A HEK cells held at V1/2 of inactivation; estimated IC50.
The IC50 is the concentration that inhibits the measured activity by half. Consider `CCc1nsc(NS(=O)(=O)c2ccc(Oc3ccccc3-c3ccccc3)c(C#N)c2)n1` [Example 102, 4-(biphenyl-2-yloxy)-3-cyano-N-(3-ethyl-1,2,4-thiadiazol-5-yl)benzenesulfonamide], for which the concentration for half-maximal inhibition (IC50) is recorded as >10 µM.

On to `COCc1cccc(-c2cc(F)ccc2Oc2ccc(S(=O)(=O)Nc3nccs3)cc2C#N)c1` [Example 160, 3-cyano-4-{[5-fluoro-3′-(methoxymethyl)biphenyl-2-yl]oxy}-N-1,3-thiazol-2-ylbenzenesulfonamide], for which the 50% inhibitory concentration (IC50) was 0.06 µM.

`COc1cccc(-c2cc(F)ccc2Oc2ccc(S(=O)(=O)Nc3nccs3)cc2C#N)c1` [Example 154, 3-cyano-4-[(5-fluoro-3′-methoxybiphenyl-2-yl)oxy]-N-1,3-thiazol-2-ylbenzenesulfonamide]: the IC50 is 0.13 µM.

Take `O=S(=O)(Nc1nccs1)c1ccc(Oc2ncncc2-c2ccccc2)c(F)c1` [Example 236, 3-fluoro-4-(5-phenylpyrimidin-4-yloxy)-N-(thiazol-2-yl)benzenesulfonamide]: the IC50 was 13.9 µM.

On to `N#Cc1cc(S(=O)(=O)Nc2ncns2)ccc1Oc1cccnc1-c1ccccc1` [Example 22, 3-cyano-4-[(2-phenylpyridin-3-yl)oxy]-N-1,2,4-thiadiazol-5-ylbenzenesulfonamide], for which the concentration for half-maximal inhibition (IC50) was 3.14 µM.

For `N#Cc1cc(S(=O)(=O)Nc2ncc(Cl)s2)ccc1Oc1cc(C(F)(F)F)nn1-c1ccccc1` [Example 141, N-(5-chloro-1,3-thiazol-2-yl)-3-cyano-4-{[1-phenyl-3-(trifluoromethyl)-1H-pyrazol-5-yl]oxy}benzenesulfonamide], the IC50 was 1.23 µM.

With `Cc1ccc(Oc2ccc(C#N)cc2)c(Oc2ccc(S(=O)(=O)Nc3ncns3)cc2C#N)c1` [Example 78, 3-cyano-4-[2-(4-cyanophenoxy)-5-methylphenoxy]-N-1,2,4-thiadiazol-5-ylbenzenesulfonamide], the IC50 is 0.6 µM.

`Cc1ccc(Oc2ccc(S(=O)(=O)Nc3nccs3)cc2F)c(-c2c(C)cnn2C(C)(C)C)c1` [Example 223, 4-(2-(1-tert-butyl-4-methyl-1H-pyrazol-5-yl)-4-methylphenoxy)-3-fluoro-N-(thiazol-2-yl)benzenesulfonamide]: the half-maximal inhibitory concentration (IC50) is 1.51 µM.

With `O=S(=O)(Nc1nccs1)c1ccc(Oc2ccccc2C2CCCCO2)c(F)c1` (stereo not shown) [Example 133, 3-fluoro-4-[2-(tetrahydro-2H-pyran-2-yl)phenoxy]-N-1,3-thiazol-2-ylbenzenesulfonamide], the half-maximal inhibitory concentration (IC50) was 11.6 µM.

Staying with this experiment, now noted: estimated IC50; hSCN9A HEK cells, PatchXpress platform; Examples 283-814.
Turning to `Cn1nccc1-c1cc(Cl)ccc1Oc1ncc(S(=O)(=O)Nc2cscn2)cc1Cl` [Example 631, 5-chloro-6-(4-chloro-2-(1-methyl-1H-pyrazol-5-yl)phenoxy)-N-(thiazol-4-yl)pyridine-3-sulfonamide], the IC50 is recorded as 3.3 µM.

As to `N#Cc1cc(S(=O)(=O)Nc2cscn2)ccc1Oc1ccc(Cl)cc1-c1ccnn1C(F)F` [Example 402, 4-{4-chloro-2-[1-(difluoromethyl)-1H-pyrazol-5-yl]phenoxy}-3-cyano-N-1,3-thiazol-4-ylbenzenesulfonamide], the half-inhibitory concentration (IC50) is 0.25 µM.

Turning to `N#Cc1cc(S(=O)(=O)Nc2ncc(Cl)s2)ccc1Oc1ccc(Cl)cc1-c1ccnn1C1CNC1` [Example 559, 4-[2-(1-azetidin-3-yl-1H-pyrazol-5-yl)-4-chlorophenoxy]-N-(5-chloro-1,3-thiazol-2-yl)-3-cyanobenzenesulfonamide], the 50% inhibitory concentration (IC50) is 0.0007 µM.

For `Cc1nc(-c2ccccc2Oc2ccc(S(=O)(=O)Nc3ccc(F)cn3)cc2C#N)cs1` [Example 572, 3-cyano-N-(5-fluoropyridin-2-yl)-4-[2-(2-methyl-1,3-thiazol-4-yl)phenoxy]benzenesulfonamide], the concentration for half-maximal inhibition (IC50) is >30 µM.

Turning to `O=S(=O)(Nc1ncns1)c1cc(F)c(Oc2ccc(Cl)cc2-c2ccn[nH]2)cc1F` [Example 637, 4-[4-Chloro-2-(1H-pyrazol-5-yl)phenoxy]-2,5-difluoro-N-1,2,4-thiadiazol-5-ylbenzenesulfonamide], the IC50 was 0.016 µM.

On to `CCn1nc(C(F)(F)F)cc1-c1ccc(Oc2ccc(S(=O)(=O)Nc3ncc(F)s3)cc2C#N)cc1F` [Example 536, 3-cyano-4-{4-[1-ethyl-3-(trifluoromethyl)-1H-pyrazol-5-yl]-3-fluorophenoxy}-N-(5-fluoro-1,3-thiazol-2-yl)benzenesulfonamide], for which the IC50 was 0.22 µM.

For `Cc1scnc1NS(=O)(=O)c1ccc(Oc2ccccc2-c2ccccc2)c(C#N)c1` [Example 600, 4-(biphenyl-2-yloxy)-3-cyano-N-(5-methyl-1,3-thiazol-4-yl)benzenesulfonamide], the half-inhibitory concentration (IC50) is 15 µM.

`Cn1nccc1-c1cc(Cl)ccc1Oc1ccc(S(=O)(=O)Nc2ncc(Cl)cn2)cc1C#N` [Example 464, 4-[4-chloro-2-(1-methyl-1H-pyrazol-5-yl)phenoxy]-N-(5-chloropyrimidin-2-yl)-3-cyanobenzenesulfonamide]: the IC50 was 6 µM.

Regarding `COc1cc(-c2cc(F)ccc2Oc2cc(F)c(S(=O)(=O)Nc3cscn3)cc2Cl)n(C)n1` [Example 688, 5-Chloro-2-fluoro-4-[4-fluoro-2-(3-methoxy-1-methyl-1H-pyrazol-5-yl)-phenoxy]-N-1,3-thiazol-4-yl-benzenesulfonamide], the IC50 was 5.1 µM.

Consider `Cn1nccc1-c1cc(C(F)(F)F)ccc1Oc1ccc(S(=O)(=O)Nc2ncc(F)s2)cc1C#N` [Example 718, 3-cyano-N-(5-fluoro-1,3-thiazol-2-yl)-4-[2-(1-methyl-1H-pyrazol-5-yl)-4-(trifluoromethyl)phenoxy]benzenesulfonamide], for which the IC50 is 0.033 µM.

Take `Cn1nccc1-c1nc(C(F)(F)F)ccc1Oc1cc(F)c(S(=O)(=O)Nc2cscn2)cc1Cl` [Example 656, 5-chloro-2-fluoro-4-{[2-(1-methyl-1H-pyrazol-5-yl)-6-(trifluoromethyl)pyridin-3-yl]oxy}-N-1,3-thiazol-4-ylbenzenesulfonamide]: the IC50 is 0.27 µM.

Regarding `O=S(=O)(Nc1cscn1)c1ccc(Oc2ccc(Cl)cc2-c2cn[nH]c2)cc1` [Example 672, 4-[4-chloro-2-(1H-pyrazol-4-yl)phenoxy]-N-1,3-thiazol-4-ylbenzenesulfonamide], the IC50 is 2.5 µM.

For the compound `N#Cc1cc(S(=O)(=O)Nc2ccc(F)cn2)ccc1Oc1ccc(-n2ccnc2)cc1` [Example 569, 3-cyano-N-(5-fluoropyridin-2-yl)-4-[4-(1H-imidazol-1-yl)phenoxy]benzenesulfonamide], the 50% inhibitory concentration (IC50) was >3 µM.

Take `N#Cc1cc(S(=O)(=O)Nc2nccs2)ccc1Oc1ccc(Cl)c(-c2ccn[nH]2)c1` [Example 446, 4-[4-chloro-3-(1H-pyrazol-5-yl)phenoxy]-3-cyano-N-1,3-thiazol-2-ylbenzenesulfonamide]: the IC50 is 2.3 µM.

In the case of `Cn1nccc1-c1cc(Cl)ccc1Oc1cc(F)c(S(=O)(=O)Nc2nccs2)cc1Cl` [Example 304, 5-chloro-4-[4-chloro-2-(1-methyl-1H-pyrazol-5-yl)phenoxy]-2-fluoro-N-1,3-thiazol-2-ylbenzenesulfonamide], the IC50 is 0.025 µM.

As to `N#Cc1cc(S(=O)(=O)Nc2nccs2)ccc1Oc1ccc(I)cc1-c1cn[nH]c1` [Example 696, 3-cyano-4-[4-iodo-2-(1H-pyrazol-4-yl)phenoxy]-N-1,3-thiazol-2-ylbenzenesulfonamide], the IC50 was 0.078 µM.

Still in this experiment, the particulars now being: estimated IC50; hSCN9A HEK cells, PatchXpress platform; Examples 815-1040.
As for `N#Cc1cc(S(=O)(=O)Nc2nncs2)ccc1Oc1ccc(Cl)cc1-c1ccnc(N2CCC2)c1` [Example 919, 4-[2-(2-azetidin-1-ylpyridin-4-yl)-4-chlorophenoxy]-3-cyano-N-1,3,4-thiadiazol-2-ylbenzenesulfonamide], the IC50 is 0.024 µM.

`Nc1cc(-c2cc(Cl)ccc2Oc2cc(F)c(S(=O)(=O)Nc3ncccn3)cc2Cl)ccn1` [Example 926, 4-[2-(2-aminopyridin-4-yl)-4-chlorophenoxy]-5-chloro-2-fluoro-N-pyrimidin-2-ylbenzenesulfonamide]: the IC50 is 0.067 µM.

With `Cn1nccc1-c1cc(Cl)ccc1Oc1ccc(S(=O)(=O)Nc2cnsn2)cc1C#N` [Example 921, 4-[4-chloro-2-(1-methyl-1H-pyrazol-5-yl)phenoxy]-3-cyano-N-1,2,5-thiadiazol-3-ylbenzenesulfonamide], the half-maximal inhibitory concentration (IC50) is 3.9 µM.

For `Cn1nccc1-c1cc(Cl)ccc1Oc1ccc(S(=O)(=O)Nc2cccnc2)cc1C#N` [Example 923, 4-[4-chloro-2-(1-methyl-1H-pyrazol-5-yl)phenoxy]-3-cyano-N-pyridin-3-ylbenzenesulfonamide], the IC50 was >10 µM.

In the case of `N#Cc1cc(S(=O)(=O)Nc2ncns2)ccc1Oc1ccc(I)cc1-c1cccc(CN2CCC2)c1` [Example 815, 4-{[3′-(azetidin-1-ylmethyl)-5-iodobiphenyl-2-yl]oxy}-3-cyano-N-1,2,4-thiadiazol-5-ylbenzenesulfonamide], the IC50 is 0.0006 µM.

As for `O=S1(=O)CCC(n2nccc2-c2cc(Cl)ccc2Oc2cc(F)c(S(=O)(=O)Nc3ncns3)cc2F)C1` (stereo not shown) [Example 866, 4-{4-chloro-2-[1-(1,1-dioxidotetrahydro-3-thienyl)-1H-pyrazol-5-yl]phenoxy}-2,5-difluoro-N-1,2,4-thiadiazol-5-ylbenzenesulfonamide], the IC50 is 0.014 µM.

As for `N#Cc1cc(S(=O)(=O)Nc2ncns2)ccc1Oc1ccc(Cl)cc1-c1cc(N2CCC2)ncn1` [Example 877, 4-[2-(6-azetidin-1-ylpyrimidin-4-yl)-4-chlorophenoxy]-3-cyano-N-1,2,4-thiadiazol-5-ylbenzenesulfonamide], the half-inhibitory concentration (IC50) is 0.47 µM.

As for `O=S(=O)(Nc1cscn1)c1cc(Cl)c(Oc2ccc(Cl)cc2-c2ccnnc2)cc1F` [Example 845, 5-chloro-4-(4-chloro-2-pyridazin-4-ylphenoxy)-2-fluoro-N-1,3-thiazol-4-ylbenzenesulfonamide], the IC50 is 0.041 µM.

On to `Cn1ccc(NS(=O)(=O)c2ccc(Oc3ccc(Cl)cc3-c3ccnn3C)c(C#N)c2)n1` [Example 887, 4-[4-chloro-2-(1-methyl-1H-pyrazol-5-yl)phenoxy]-3-cyano-N-(1-methyl-1H-pyrazol-3-yl)benzenesulfonamide], for which the IC50 was 9 µM.
